These results are taken from PMC7617969, “Carboxylic Acid Bioisosteres Boost Nurr1 Agonist Selectivity” (Journal of medicinal chemistry, 2025).

Several values for one entry are separate records, joined by “and”; a condition that tells them apart may be missing. Equal entries are not always repeated.

For one assay, the target named is T1, DHODH (Homo sapiens, UniProt Q02127).
T1 construct: using an N-terminally truncated recombinant DHODH enzyme as described previously[20]
As to conditions: recombinant human DHODH; cited from earlier work.

Assay [1] addresses T2, Nurr1 (Homo sapiens, UniProt P43354).
T2 construct: expressed in transfected cells; host or cells: HEK293T
The note with it: cited from earlier work; for efficacy_NR4A2: supplementary csv.

Assay [2] has as its target T2, Nurr1. Description: Gal4-Nurr1 hybrid reporter gene assay. Format: cell-based. The note with it: IC50(DHODH) / EC50(Nurr1).
[3] abbreviates: Gal4-Nurr1 hybrid reporter gene assay.

T2 sequence (P43354 360-595 limits assumed): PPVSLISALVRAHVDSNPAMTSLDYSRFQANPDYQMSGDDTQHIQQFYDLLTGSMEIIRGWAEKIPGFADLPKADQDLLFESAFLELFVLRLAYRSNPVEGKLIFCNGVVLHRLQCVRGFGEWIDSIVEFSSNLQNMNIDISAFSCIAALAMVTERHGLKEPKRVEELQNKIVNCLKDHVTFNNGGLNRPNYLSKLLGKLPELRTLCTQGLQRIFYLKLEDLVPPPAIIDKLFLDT
T1 sequence (Q02127 31-395): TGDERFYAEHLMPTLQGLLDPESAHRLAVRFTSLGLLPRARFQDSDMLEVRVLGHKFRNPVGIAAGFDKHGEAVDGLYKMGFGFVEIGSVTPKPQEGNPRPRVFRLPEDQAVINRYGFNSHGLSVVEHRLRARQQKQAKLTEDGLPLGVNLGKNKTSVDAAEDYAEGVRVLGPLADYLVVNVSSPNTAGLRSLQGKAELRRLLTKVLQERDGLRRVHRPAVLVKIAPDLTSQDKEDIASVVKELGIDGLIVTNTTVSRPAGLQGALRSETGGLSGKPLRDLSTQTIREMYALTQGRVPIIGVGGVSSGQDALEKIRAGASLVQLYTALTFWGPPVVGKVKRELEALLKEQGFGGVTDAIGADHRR

In the case of `[2H]C([2H])([2H])Oc1cccc(-c2cc(F)c(NC(=O)C3=C(c4noc(=O)[nH]4)CCC3)c(F)c2)c1` [compound 8], on DHODH, the IC50 was 9.26 µM and 9 µM. Besides, on Nurr1 [1] (setting [3]), the half-maximal effective concentration (EC50) is 1 ± 0.1 µM and the “max. activation (Nurr1)” value is 2.0±0.1 fold. At Nurr1 [1], the efficacy_NR4A2 was 200%. Besides, the “selectivity index DHODH/Nurr1” value on Nurr1 [2] was 9.

For the compound `[2H]C([2H])([2H])Oc1cccc(-c2c(F)c(F)c(NC(=O)C3=C(C(=O)O)CCC3)c(F)c2F)c1` [compound 10], on Nurr1 [1] (setting [3]), the “max. activation (Nurr1)” value is given as 1.9±0.1 fold. Moreover, the efficacy_NR4A2 at Nurr1 [1] is on record as 188%.
